# Experimental data reported in the supplement of paper PMC10307832.
# Tests used:
# Assay in all cases: relative viability (nuclei count vs DMSO), 5 days (fraction); higher = more cells survive
# [1] = tested on: NCI-H23
# Outline: (§1)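 Lung cancer cell lines in 1536-well plates were dosed by pin tool the day after seeding, either with one drug alone or with a fixed anchor-drug dose plus five library-drug doses (not always all listed) in √10 steps. After 5 days, cells were fixed and their nuclei stained in one step (final 0.05% Triton X-100, 1% formaldehyde, 1 ug/ml Hoechst), then counted on 4× images. Relative viability is the nuclei count in treated wells divided by that in vehicle wells. Values are medians of duplicate plates.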
# [2] = tested on: NCI-H322M
# Outline: as §1
# [3] = tested on: EBC-1
# Outline: as §1
# [4] = tested on: Calu-6
# Outline: as §1
# [5] = tested on: NCI-H596
# Outline: as §1
# [6] = tested on: NCI-H1355
# Outline: as §1
# [7] = tested on: A549
# Outline: as §1
# [8] = tested on: NCI-H1993
# Outline: as §1
# [9] = tested on: NCI-H1299
# Outline: as §1
# [10] = tested on: IA-LM
# Outline: as §1
# [11] = tested on: UMC-11
# Outline: as §1
# [12] = tested on: NCI-H1703
# Outline: as §1
# [13] = tested on: LCLC-97TM1
# Outline: as §1
structure (smiles),measurement,setting,value
CC(=O)O[C@@]12CO[C@@H]1C[C@H](O)[C@@]1(C)C(=O)[C@H](O)C3=C(C)[C@@H](OC(=O)[C@H](O)[C@@H](NC(=O)OC(C)(C)C)c4ccccc4)C[C@@](O)([C@@H](OC(=O)c4ccccc4)[C@H]21)C3(C)C [Docetaxel] + CS(=O)(=O)CCNCc1ccc(-c2ccc3ncnc(Nc4ccc(OCc5cccc(F)c5)c(Cl)c4)c3c2)o1 [Lapatinib] (partner 2 µM),relative viability,[1]; first compound 0.0002 µM,0.963
same,relative viability,[1]; first compound 0.000632 µM,0.725
same,relative viability,[1]; first compound 0.002 µM,0.356
same,relative viability,[1]; first compound 0.006325 µM,0.157
same,relative viability,[1]; first compound 0.02 µM,0.123
same,relative viability,[2]; first compound 0.0002 µM,0.511
same,relative viability,[2]; first compound 0.000632 µM,0.593
same,relative viability,[2]; first compound 0.002 µM,0.497
same,relative viability,[2]; first compound 0.006325 µM,0.46
same,relative viability,[2]; first compound 0.02 µM,0.293
same,relative viability,[3]; first compound 0.0002 µM,0.201
same,relative viability,[3]; first compound 0.000632 µM,0.227
same,relative viability,[3]; first compound 0.002 µM,0.228
same,relative viability,[3]; first compound 0.006325 µM,0.197
same,relative viability,[3]; first compound 0.02 µM,0.195
same,relative viability,[4]; first compound 0.0002 µM,0.982
same,relative viability,[4]; first compound 0.000632 µM,0.879
same,relative viability,[4]; first compound 0.002 µM,0.286
same,relative viability,[4]; first compound 0.006325 µM,0.125
same,relative viability,[4]; first compound 0.02 µM,0.112
same,relative viability,[5]; first compound 0.0002 µM,0.995
same,relative viability,[5]; first compound 0.000632 µM,0.957
same,relative viability,[5]; first compound 0.002 µM,0.844
same,relative viability,[5]; first compound 0.006325 µM,0.372
same,relative viability,[5]; first compound 0.02 µM,0.35
same,relative viability,[6]; first compound 0.0002 µM,0.933
same,relative viability,[6]; first compound 0.000632 µM,0.975
same,relative viability,[6]; first compound 0.002 µM,0.446
same,relative viability,[6]; first compound 0.006325 µM,0.289
same,relative viability,[6]; first compound 0.02 µM,0.21
same,relative viability,[7]; first compound 0.0002 µM,0.972
same,relative viability,[7]; first compound 0.002 µM,0.0898
same,relative viability,[7]; first compound 0.006325 µM,0.0769
same,relative viability,[7]; first compound 0.02 µM,0.0547
same,relative viability,[8]; first compound 0.0002 µM,0.796
same,relative viability,[8]; first compound 0.000632 µM,0.824
same,relative viability,[8]; first compound 0.002 µM,0.627
same,relative viability,[8]; first compound 0.006325 µM,0.534
same,relative viability,[8]; first compound 0.02 µM,0.451
same,relative viability,[9]; first compound 0.0002 µM,0.935
same,relative viability,[9]; first compound 0.000632 µM,0.968
same,relative viability,[9]; first compound 0.002 µM,0.704
same,relative viability,[9]; first compound 0.006325 µM,0.467
same,relative viability,[9]; first compound 0.02 µM,0.298
same,relative viability,[10]; first compound 0.0002 µM,0.46
same,relative viability,[10]; first compound 0.000632 µM,0.153
same,relative viability,[10]; first compound 0.002 µM,0.0797
same,relative viability,[10]; first compound 0.006325 µM,0.069
same,relative viability,[10]; first compound 0.02 µM,0.068
same,relative viability,[11]; first compound 0.0002 µM,0.8
same,relative viability,[11]; first compound 0.000632 µM,0.831
same,relative viability,[11]; first compound 0.002 µM,0.249
same,relative viability,[11]; first compound 0.006325 µM,0.26
same,relative viability,[11]; first compound 0.02 µM,0.148
same,relative viability,[12]; first compound 0.0002 µM,1.1
same,relative viability,[12]; first compound 0.000632 µM,0.664
same,relative viability,[12]; first compound 0.002 µM,0.219
same,relative viability,[12]; first compound 0.006325 µM,0.157
same,relative viability,[12]; first compound 0.02 µM,0.148
same,relative viability,[13]; first compound 0.000632 µM,0.865
same,relative viability,[13]; first compound 0.002 µM,0.155
same,relative viability,[13]; first compound 0.006325 µM,0.175
same,relative viability,[13]; first compound 0.02 µM,0.083
CC(=O)O[C@@]12CO[C@@H]1C[C@H](O)[C@@]1(C)C(=O)[C@H](O)C3=C(C)[C@@H](OC(=O)[C@H](O)[C@@H](NC(=O)OC(C)(C)C)c4ccccc4)C[C@@](O)([C@@H](OC(=O)c4ccccc4)[C@H]21)C3(C)C [Docetaxel] + CC1(C)CCC(c2ccc(Cl)cc2)=C(CN2CCN(c3ccc(C(=O)NS(=O)(=O)c4ccc(N[C@H](CCN5CCOCC5)CSc5ccccc5)c(S(=O)(=O)C(F)(F)F)c4)cc3)CC2)C1 [Navitoclax] (partner 0.5 µM),relative viability,[1]; first compound 0.0002 µM,0.876
same,relative viability,[1]; first compound 0.000632 µM,0.741
same,relative viability,[1]; first compound 0.002 µM,0.514
same,relative viability,[1]; first compound 0.006325 µM,0.242
same,relative viability,[2]; first compound 0.0002 µM,1.14
same,relative viability,[2]; first compound 0.000632 µM,1.13
same,relative viability,[2]; first compound 0.002 µM,0.962
same,relative viability,[2]; first compound 0.006325 µM,0.511
same,relative viability,[2]; first compound 0.02 µM,0.306
same,relative viability,[3]; first compound 0.0002 µM,0.259
same,relative viability,[3]; first compound 0.000632 µM,0.27
same,relative viability,[3]; first compound 0.002 µM,0.152
same,relative viability,[3]; first compound 0.006325 µM,0.206
same,relative viability,[3]; first compound 0.02 µM,0.124
same,relative viability,[4]; first compound 0.0002 µM,1.02
same,relative viability,[4]; first compound 0.000632 µM,0.707
same,relative viability,[4]; first compound 0.002 µM,0.111
same,relative viability,[4]; first compound 0.006325 µM,0.0836
same,relative viability,[4]; first compound 0.02 µM,0.0609
same,relative viability,[5]; first compound 0.0002 µM,0.882
same,relative viability,[5]; first compound 0.000632 µM,0.799
same,relative viability,[5]; first compound 0.002 µM,0.565
same,relative viability,[5]; first compound 0.006325 µM,0.477
same,relative viability,[5]; first compound 0.02 µM,0.208
same,relative viability,[6]; first compound 0.0002 µM,0.901
same,relative viability,[6]; first compound 0.000632 µM,0.77
same,relative viability,[6]; first compound 0.002 µM,0.372
same,relative viability,[6]; first compound 0.006325 µM,0.272
same,relative viability,[6]; first compound 0.02 µM,0.175
same,relative viability,[7]; first compound 0.0002 µM,0.985
same,relative viability,[7]; first compound 0.000632 µM,0.245
same,relative viability,[7]; first compound 0.002 µM,0.055
same,relative viability,[7]; first compound 0.006325 µM,0.0522
same,relative viability,[7]; first compound 0.02 µM,0.0365
same,relative viability,[8]; first compound 0.0002 µM,0.945
same,relative viability,[8]; first compound 0.000632 µM,0.873
same,relative viability,[8]; first compound 0.002 µM,0.703
same,relative viability,[8]; first compound 0.006325 µM,0.554
same,relative viability,[8]; first compound 0.02 µM,0.436
same,relative viability,[9]; first compound 0.0002 µM,1.05
same,relative viability,[9]; first compound 0.000632 µM,1.03
same,relative viability,[9]; first compound 0.002 µM,0.938
same,relative viability,[9]; first compound 0.006325 µM,0.526
same,relative viability,[9]; first compound 0.02 µM,0.351
same,relative viability,[10]; first compound 0.0002 µM,0.506
same,relative viability,[10]; first compound 0.000632 µM,0.172
same,relative viability,[10]; first compound 0.002 µM,0.0734
same,relative viability,[10]; first compound 0.006325 µM,0.0267
same,relative viability,[10]; first compound 0.02 µM,0.024
same,relative viability,[11]; first compound 0.0002 µM,0.314
same,relative viability,[11]; first compound 0.000632 µM,0.271
same,relative viability,[11]; first compound 0.002 µM,0.155
same,relative viability,[11]; first compound 0.006325 µM,0.131
same,relative viability,[11]; first compound 0.02 µM,0.105
same,relative viability,[12]; first compound 0.0002 µM,1.07
same,relative viability,[12]; first compound 0.000632 µM,0.551
same,relative viability,[12]; first compound 0.006325 µM,0.129
same,relative viability,[12]; first compound 0.02 µM,0.108
same,relative viability,[13]; first compound 0.000632 µM,0.498
same,relative viability,[13]; first compound 0.002 µM,0.145
same,relative viability,[13]; first compound 0.006325 µM,0.168
same,relative viability,[13]; first compound 0.02 µM,0.11
